Here are results for three compounds from patent publication US10765690B2, “TLR4 agonists and compositions thereof and their use in the treatment of cancer” (GlaxoSmithKline Intellectual Property Development Limited, priority 2015, dated 2020).

The test system of test [1] is B16-F10 melanoma cells. Description: B16-F10 melanoma lung metastasis, lung tumor burden. In kind it is in vivo, BDF1 mice. The settings on record: CRX-527-SE 10 ug IV and cyclophosphamide 4 mg IP on day 1. As to the method:
In further experimentation, B16-F10 melanoma cells transfected with green fluorescent protein were used to quantify metastasis of the tumor to the lungs of mice. Because green fluorescent protein allows quantification of the amount of tumor in the lungs of B16-F10-bearing mice, it was possible to evaluate the efficacy of various treatment regimens using lung tumor burden as the read-out. BDF1 mice were seeded with B16-F10 melanoma cells (1.5×10^3 IV) on day 0. […] On day 26, the mice were sacrificed and their lungs were collected. The lungs from each mouse were photographed and then homogenized so that the luciferase activity could be quantified to determine how much B16-F10 tumor was present. […] This observation was confirmed when the lungs were homogenized and evaluated for luciferase activity.

In test [2] the test system is Mouse Ovarian Tumor (MOT) cells. Briefly: MOT model in TLR4 mutant (non-responder) mice, survival. It is filed as in vivo. The settings on record: MOT-bearing C3H/HeJ TLR4 mutant mice.
Test [3] deals with CT-26 colorectal tumor cells. Briefly: CT-26 syngeneic colon carcinoma model, escalating i.p. doses (Example 9). In kind it is in vivo, Balb/c mice. The settings on record: CRX-527 4, 20, 100 ug per mouse i.p. biweekly. From the text: The CT26 mouse colon carcinoma (CT26.WT; ATCC #CRL-2638) cell line was obtained from ATCC. It is an N-nitroso-N-methylurethane-(NNMU) induced, undifferentiated colon carcinoma cell line known in the art. For example, it is described in: Wang M, et al. Active immunotherapy of cancer with a nonreplicating recombinant fowlpox virus encoding a model tumor-associated antigen. J. Immunol. 154: 4685-4692, 1995 (PubMed: 7722321), which is incorporated by reference in its entirety herein. For preparation of tumor cells, A frozen (−140° C.) vial of CT-26 (mouse colon carcinoma cells), from ATCC (cat # CRL-2638, lot #59227052) are thawed and cultured in basic RPMI (with 10% FBS) media over the following week.
CT-26 cells (passage 12) are harvested from the flask in complete medium. Cells are centrifuged and resuspended in RPMI (without FBS), this step is repeated 3 times. Cell density and viability are checked via trypan blue exclusion. Cells are then diluted to desired density (5×10^5 cells per mL) and kept on ice.
Escalating doses of CRX 527 are evaluated for their efficacy in reducing tumor growth. Animals are weighed and innoculated on the right hind quarter with 0.5×10^5 CT26 tumor cells per mouse on Day 0. A total of 130 mice are inoculated with tumor cells—assuming 30% failure rate (either too big or too small at time of start of study), the goal is to have n=10 for each group. After tumor cell innoculation, tumor growth and total body weight are measured 3 times a week for the duration of the study. Randomization occurs on day 10 or 11 when the average tumor volume is approximately 100 mm^3. Begining on the day of randomization, animals are dosed with CRX 527 or vehicle i.p. biweekly, for a total of 6 doses. Mice remain on study until tumors reach >2000 cu mm for two consecutive measurements, they are removed from study for other reasons (i.e. weight loss >20%, ulceration on tumor, etc.) or until the end of the study. After euthanization the tumors may be removed and subject to dissociation for flow analysis and/or FFPE for IHC analysis.
The above protocol was used to generate the results in FIG. 17 at the dosages indicated. In almost every case, Balb/c mice that were inoculated with 0.5×10^5 CT-26 colorectal tumor cells on the right hind quarter developed tumors that, when treated i.p. with vehicle (2% glycerol) only, and progressed as expected. […] FIG. 17.

Test [4] relates to L1210 murine leukemia cells. Description: L1210 murine leukemia model, survival of tumor-bearing mice. In kind it is in vivo, BDF1 mice. The settings on record: mitomycin C 40 ug IP day 6 followed by CRX-527-AF 100 ug IP day 7; compared to either component alone; through day 54. The protocol: To investigate whether a combination treatment consisting of the chemotherapeutic mitomycin C and the AGP CRX-527 would prolong survival of cancer-bearing mice better than either treatment alone, BDF1 mice (10 per group) that had been seeded with L1210 murine leukemia cells (10^4 tumor cells via the intraperitoneal (IP) route) on day 0 were treated with, 1) nothing (untreated control), 2) an intraperitoneal injection of mitomycin C (40 ug) on day 6, 3) an IP injection of CRX-527-AF (100 ug CRX-527 in Aqueous Formulation (AF), which is 0.02% dipalmitoyl phosphatidyl choline in water) on day 7, or 4) an IP injection of mitomycin C on day 6 followed by an IP injection of CRX-527-AF on day 7. Survival curves through day 54 are presented for each group in FIG. 1.

Test [5] concerns Mouse Ovarian Tumor (MOT) cells. Briefly: Mouse Ovarian Tumor (MOT) model, survival, wild-type TLR4 mice. The settings on record: for protection (survival): 1 and 10 ug doses IP day 7 after mitomycin C day 6. It is filed as in vivo, C3H/FeJ, C3H/HeOuJ, C3H/HeN mice. As to the method: To determine whether the timing of administration of the chemotherapeutic and TLR4 ligand is important for the anti-cancer response, C3H/FeJ mice (10 per group) seeded with Mouse Ovarian Tumor (MOT) cells (10^4 tumor cells via the IP route) on day 0 were treated with, 1) nothing (untreated control), 2) mitomycin C (40 ug) on day 6, 3) CRX-527-SE (10 ug in a Stable Emulsion formulation containing 2% squalene oil-in-water) on day 4 followed by mitomycin C on day 6, 4) CRX-527-SE on day 5 followed by mitomycin C on day 6, 5) both CRX-527-SE and mitomycin C on day 6, 6) mitomycin C on day 6 followed by CRX-527-SE on day 7, 7) mitomycin C on day 6 followed by CRX-527-SE on day 10, and 8) mitomycin C on day 6 followed by CRX-527-SE on day 11. The dose/route for mitomycin C and CRX-527-SE administration was always 40 ug IP and 10 ug IP, respectively.
The effect of formulation for the anti-cancer activity observed with CRX-527 was evaluated in the MOT tumor model. In the experiment shown in FIG. 5, C3H/HeN mice (wild-type TLR4, 10 per group) were seeded with MOT tumor (10^4 tumor cells IP) on day 0. Mitomycin C (40 ug IP) was administered on day 6, and 1 or 10 ug CRX-527 formulated in AF (Aqueous Formulation=0.02% dipalmitoyl phosphatidyl choline in water), IN (Intranasal Formulation=2% glycerol in water) or SE (Stable Emulsion=2% squalene oil-in-water) was administered via the IP route on day 7. […] The results of this experiment indicate that the potency of CRX-527 in this model can be enhanced through formulation.
Group size was 10 in this experiment. […]

For the next test, the system named is 4T1 tumor cells. Briefly: 4T1 murine breast cancer model, survival after removal of primary tumor. It is filed as in vivo, BALB/c Mice. The settings on record: cyclophosphamide 3 mg IP and CRX-527 various doses IV on day 15; vs vehicle or cyclophosphamide alone. The protocol:
The benefit of combining chemotherapeutic agents with TLR4 ligands such as AGPs was also confirmed in the 4T1 murine breast cancer model. For the experiments conducted using this metastatic cancer model, 4T1 tumor cells (7×10^3 in 50 uL) were injected into the lower mammary gland of each mouse on day 0. The primary tumors were surgically removed on day 14, the mice (10 per group) were treated on day 15 with vehicles, cyclophosphamide (3 mg IP) or cyclophosphamide (3 mg IP) and CRX-527 (various doses IV).

Test [6] has as its system Mouse Ovarian Tumor (MOT) cells. Briefly: Mouse Ovarian Tumor (MOT) model, survival, wild-type TLR4 mice. In kind it is in vivo, C3H/FeJ, C3H/HeOuJ, C3H/HeN mice.
The subject of test [7] is B16-F10 melanoma cells. Description: B16-F10 murine melanoma model, survival. It is filed as in vivo, BDF1 mice. The settings on record: cyclophosphamide alone 3 mg IP on day 5. As to the method: The efficacy of combination therapy with a chemotherapeutic agent and an AGP was also tested in a murine melanoma model using a non-immunogenic tumor called B16-F10. In these experiments, BDF1 mice were seeded with B16-F10 melanoma cells (1.5×10^3 IV) on day 0. At various time thereafter, cancer-bearing mice were treated with cyclophosphamide (aka Cytoxan) alone (3 mg IP), CRX-527-IN (10 ug) alone or a combination of the two agents.

The structures appear in SMILES notation.

Consider `CCCCCCCCCCC[C@H](CC(=O)N[C@H]1[C@H](OC[C@H](NC(=O)C[C@@H](CCCCCCCCCCC)OC(=O)CCCCCCCCC)C(=O)O)O[C@H](CO)[C@@H](OP(=O)(O)O)[C@@H]1OC(=O)C[C@@H](CCCCCCCCCCC)OC(=O)CCCCCCCCC)OC(=O)CCCCCCCCC` [CRX-527], for which the “luciferase activity in homogenized lungs” value in the test on B16-F10 melanoma cells [1] (day 26, vs vehicle or either agent alone) was “significantly less luciferase activity”. The “lung tumor burden by visual examination” value with B16-F10 melanoma cells [1] (lungs collected day 26) is “lower lung tumor burden than any other group”. For the same compound, the survival result in test [2] is listed as “did not promote survival”; in test [4] it was “significantly prolonged survival”; in test [5] (C3H/HeN mice, CRX-527 1 or 10 ug IP day 7, one day after mitomycin C 40 ug IP) it was “prolonged survival”; in test [5] (both mitomycin C and CRX-527, compared to either component alone), “significantly prolonged survival”; in test [6] (C3H/HeOuJ wild-type mice, alone or in combination with mitomycin C) it was “promoted survival”. The survivability result in test [3] is “Dose dependence was also seen”. For the same compound, the tumor growth entry in test [3] (6 doses, compared to vehicle (2% glycerol)) is listed as “inhibited tumor growth in a dose dependent manner”. Also, in test [5] (AF formulation (0.02% dipalmitoyl phosphatidyl choline in water), IP day 7 after mitomycin C day 6), the “dose required to induce a high level of protection” value came out at 10 µg. Besides, the survival times entry was “significantly prolonged survival times” in test [5] (C3H/FeJ mice, CRX-527-SE 10 ug IP at the same time as or up to 5 days after mitomycin C 40 ug IP (day 6), vs untreated, mitomycin alone or CRX527-SE followed by mitomycin C) and “longer survival times” with 4T1 tumor cells. Moreover, the “potency compared to the AF formulation” value in test [5] (IN formulation (2% glycerol in water), IP day 7 after mitomycin C day 6) is given as “enhanced potency”; in test [5] (SE formulation (2% squalene oil-in-water), IP day 7 after mitomycin C day 6), “enhanced potency”. Besides, the “protection (survival)” value in test [5] (IN formulation) and in test [5] (SE formulation) was “highly effective” in each case. Moreover, the “resistance to re-challenge with the same tumor” value in test [6] (mice cured of MOT tumor by combination treatment with mitomycin C and CRX-527, compared to naive control mice) is given as “resistant to re-challenge”.
Take `O.O=P1(N(CCCl)CCCl)NCCCO1` (stereo not shown) [cyclophosphamide, 2-[bis(2-chloroethyl)amino]tetrahydro-2H-1,3,2-oxazaphosphorine 2-oxide monohydrate]: in the test with B16-F10 melanoma cells [7], the survival entry is “modest prolongation”.
On to `CO[C@@]12[C@H](COC(N)=O)C3=C(C(=O)C(C)=C(N)C3=O)N1C[C@@H]1N[C@@H]12` [mitomycin C, reference compound], for which, in test [5] (C3H/HeN mice, mitomycin C alone 40 ug IP day 6, compared to no treatment control), the survival entry is recorded as “small increase in survival”.
